The values that follow are results of earlier work, collected in patent publication US20120294937A1, “NEW PHARMACEUTICAL DOSAGE FORM FOR THE TREATMENT OF GASTRIC ACID-RELATED DISORDERS” (NOVARTIS AG, priority 2009, published 2012).

The subject of this series is stomach acid pH.

As to `NC(N)=Nc1nc(CSCCC(N)=NS(N)(=O)=O)cs1` [famotidine], where the note is “Day 1, clinical setting”, the “time stomach acid controlled at pH>4” value is listed as 54 % of the day. Where the note is “Day 8, steady state for omeprazole reached, clinical setting”, the “percentage of time controlling stomach acid” value is 48 % of the day.
